Values of other authors as cited in patent publication US9138422B2, “Method of using antimycin A to downregulate Wnt/b-catenin pathway to treat gefitinib resistant cancer” (priority 2011, dated 2015).
Read-outs that look alike come from different tables or passages of the source.

Tested on: NSCLC (lung adenocarcinoma) patients
Settings: cited from earlier work

SMILES: COc1cc2ncnc(Nc3ccc(F)c(Cl)c3)c2cc1OCCCN1CCOCC1 [gefitinib]
- median progression free survival (first-line treatment, sensitive EGFR mutated patients): about 10 months

SMILES: C#Cc1cccc(Nc2ncnc3cc(OCCOC)c(OCCOC)cc23)c1 [erlotinib]
- median progression free survival (second line treatment after chemotherapy): 2.2 months
